Measurements reported in paper PMC6274251, “Design, Synthesis and Biological Evaluation of Stilbene Derivatives as Novel Inhibitors of Protein Tyrosine Phosphatase 1B” (Molecules, 2016).
Entries after “also recorded” stand apart in the source; their conditions may differ. Read-outs that look alike come from different tables or passages of the source.

Columns and labels:
[1] = target: T1, GST-PTP1B (Homo sapiens, UniProt P18031); test: Colorimetric pNPP assay of inhibition against PTP1B; type: biochemical; conditions: for IC50: means ± SD of three replications, pNPP substrate, pH 6.5, 30 °C; for TCPTP/PTP1B, the ratio of IC50 of TCPTP and PTP1B: selectivity over TCPTP;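 as to all read-outs here: colorimetric inhibition readout run in 96-well plates, with PTP1B and TCPTP both tested in the same assay format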
T1 sequence (P18031 1-435): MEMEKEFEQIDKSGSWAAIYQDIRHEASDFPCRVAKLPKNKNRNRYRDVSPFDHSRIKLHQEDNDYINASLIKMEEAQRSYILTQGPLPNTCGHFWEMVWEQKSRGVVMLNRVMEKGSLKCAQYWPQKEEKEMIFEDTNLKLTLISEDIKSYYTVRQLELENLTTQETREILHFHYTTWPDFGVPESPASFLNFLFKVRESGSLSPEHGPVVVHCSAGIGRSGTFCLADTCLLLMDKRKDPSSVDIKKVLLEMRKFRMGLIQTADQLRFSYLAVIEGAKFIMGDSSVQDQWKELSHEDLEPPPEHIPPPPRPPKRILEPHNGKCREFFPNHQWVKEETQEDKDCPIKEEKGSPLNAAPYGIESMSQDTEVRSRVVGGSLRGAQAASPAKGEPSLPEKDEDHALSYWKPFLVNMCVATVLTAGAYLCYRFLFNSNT
Description: (§1) A colorimetric assay to measure inhibition against PTP1B and TCPTP was performed in 96-well plates. […] Briefly, the tested compounds were solubilized in DMSO and serially diluted into concentrations for the inhibitory test.

[2] = target: T2, GST-TCPTP (Homo sapiens, UniProt P17706); test: Colorimetric pNPP assay of inhibition against TCPTP
T2 sequence (P17706 1-415): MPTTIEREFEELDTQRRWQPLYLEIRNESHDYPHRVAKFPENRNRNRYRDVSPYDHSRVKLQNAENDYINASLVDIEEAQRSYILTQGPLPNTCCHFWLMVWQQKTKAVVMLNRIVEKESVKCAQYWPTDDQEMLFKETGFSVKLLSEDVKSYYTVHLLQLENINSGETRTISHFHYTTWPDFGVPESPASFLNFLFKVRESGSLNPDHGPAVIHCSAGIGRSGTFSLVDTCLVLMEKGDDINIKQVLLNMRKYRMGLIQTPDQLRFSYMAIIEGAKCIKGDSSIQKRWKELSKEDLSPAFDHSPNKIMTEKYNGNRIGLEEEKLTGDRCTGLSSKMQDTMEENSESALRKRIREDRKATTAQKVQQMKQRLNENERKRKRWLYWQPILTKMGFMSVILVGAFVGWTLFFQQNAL
Description: as §1

[3] = target: T3, PTP1B (Homo sapiens, UniProt P18031); test: PTP1B enzyme kinetic study (Michaelis-Menten, Lineweaver-Burk plot); type: biochemical
T3 sequence (P18031 1-435): T1 sequence (P18031 1-435)

[4] = read-out: IC50 against PTP1B (Table 1)

| Compound | IC50 [1, 4] | TCPTP/PTP1B, the ratio of IC50 of TCPTP and PTP1B [1] | IC50 [2] | IC50 ([1]; read-out: IC50 PTP1B (Table 2)) | PTP1B inhibitory activity, fold higher than compound 18 ([1]; relative to compound 18) | Ki ([3]; 30 nM PTP1B, pNPP up to 80 mM, pH 6.5, read-out: inhibitory constant Ki) | mode of inhibition of PTP1B ([3]; Vmax constant, Km increased with compound concentration) |
| --- | --- | --- | --- | --- | --- | --- | --- |
| O=C(O)c1cccc(/C=C/c2ccc(OCc3conc3-c3ccccc3)cc2)c1 [Compound 15, (E)-3-(4-((3-Phenylisoxazol-4-yl)methoxy)styryl)benzoic Acid] | 20.7 ± 3.83 µM |  |  |  |  |  |  |
| O=C(O)c1cccc(/C=C/c2ccc(OCc3cnoc3-c3ccccc3)cc2)c1 [Compound 16, (E)-3-(4-((5-Phenylisoxazol-4-yl)methoxy)styryl)benzoic acid] | 16.2 ± 4.52 µM |  |  |  |  |  |  |
| Cc1onc(-c2ccccc2)c1COc1ccc(/C=C/c2cccc(C(=O)O)c2)cc1 [Compound 17, (E)-3-(4-((5-Methyl-3-phenylisoxazol-4-yl)methoxy)styryl)benzoic acid] | 15.7 ± 2.15 µM |  |  |  |  |  |  |
| O=C(O)c1cccc(/C=C/c2ccc(OCc3cc(-c4ccccc4)on3)cc2)c1 [Compound 18, (E)-3-(4-((5-Phenylisoxazol-3-yl)methoxy)styryl)benzoic acid] | 6.33 ± 1.02 µM | 1.5 | 9.58 ± 0.33 µM |  |  |  |  |
| COC(=O)c1cccc(/C=C/c2ccc(OCc3cc(-c4ccccc4)on3)cc2)c1 [Compound 18d] | 23.7 ± 3.62 µM |  |  |  |  |  |  |
| O=C(O)c1cccc(/C=C/c2ccc(OCc3cc(-c4ccccc4Cl)on3)cc2)c1 [Compound 19, (E)-3-(4-((5-(2-Chlorophenyl)isoxazol-3-yl)methoxy)styryl)benzoic acid] |  | 20.7 | 36.2 ± 3.82 µM | 1.75 ± 0.82 µM |  |  |  |
| COc1ccccc1-c1cc(COc2ccc(/C=C/c3cccc(C(=O)O)c3)cc2)no1 [Compound 20, (E)-3-(4-((5-(2-Methoxyphenyl)isoxazol-3-yl)methoxy)styryl)benzoic acid] |  |  | > 40 µM | 7.66 ± 1.05 µM |  |  |  |
| O=C(O)c1cccc(/C=C/c2ccc(OCc3cc(-c4cccc(Cl)c4)on3)cc2)c1 [Compound 21, (E)-3-(4-((5-(3-Chlorophenyl)isoxazol-3-yl)methoxy)styryl)benzoic acid] |  | 1.4 | 7.58 ± 1.32 µM | 5.37 ± 1.53 µM |  |  |  |
| O=C(O)c1cccc(/C=C/c2ccc(OCc3cc(-c4cccc(F)c4)on3)cc2)c1 [Compound 22, (E)-3-(4-((5-(3-Fluorophenyl)isoxazol-3-yl)methoxy)styryl)benzoic acid] |  |  | > 40 µM | > 20 µM |  |  |  |
| O=C(O)c1cccc(/C=C/c2ccc(OCc3cc(-c4cccc(Br)c4)on3)cc2)c1 [Compound 23, (E)-3-(4-((5-(3-Bromophenyl)isoxazol-3-yl)methoxy)styryl)benzoic acid] |  |  | > 40 µM | 9.85 ± 2.04 µM |  |  |  |
| Cc1cccc(-c2cc(COc3ccc(/C=C/c4cccc(C(=O)O)c4)cc3)no2)c1 [Compound 24, (E)-3-(4-((5-(m-Tolyl)isoxazol-3-yl)methoxy)styryl)benzoic acid] |  | 5.1 | 18.9 ± 1.18 µM | 3.68 ± 1.12 µM |  |  |  |
| O=C(O)c1cccc(/C=C/c2ccc(OCc3cc(-c4cccc([N+](=O)[O-])c4)on3)cc2)c1 [Compound 25, (E)-3-(4-((5-(3-Nitrophenyl)isoxazol-3-yl)methoxy)styryl)benzoic acid] |  | 6.5 | 13.2 ± 1.7 µM | 2.05 ± 0.54 µM | 3 fold |  |  |
| Cc1ccc(-c2cc(COc3ccc(/C=C/c4cccc(C(=O)O)c4)cc3)no2)cc1 [Compound 26, (E)-3-(4-((5-(p-Tolyl)isoxazol-3-yl)methoxy)styryl)benzoic acid] |  | 2.2 | 7.67 ± 0.35 µM | 3.56 ± 0.28 µM |  |  |  |
| COc1ccc(-c2cc(COc3ccc(/C=C/c4cccc(C(=O)O)c4)cc3)no2)cc1 [Compound 27, (E)-3-(4-((5-(4-Methoxyphenyl)isoxazol-3-yl)methoxy)styryl)benzoic acid] |  | 3.6 | 8.02 ± 0.99 µM | 2.23 ± 0.51 µM |  |  |  |
| O=C(O)c1cccc(/C=C/c2ccc(OCc3cc(-c4ccc(F)cc4)on3)cc2)c1 [Compound 28, (E)-3-(4-((5-(4-Fluorophenyl)isoxazol-3-yl)methoxy)styryl)benzoic acid] |  | 1.6 | 5.19 ± 0.31 µM | 3.34 ± 0.81 µM |  |  |  |
| O=C(O)c1cccc(/C=C/c2ccc(OCc3cc(-c4ccc(Cl)c(Cl)c4)on3)cc2)c1 [Compound 29, (E)-3-(4-((5-(3,4-Dichlorophenyl)isoxazol-3-yl)methoxy)styryl)benzoic acid] |  | 4.2 | 3.78 ± 0.22 µM | 0.91 ± 0.33 µM |  | 780 nM | competitive PTP1B inhibitor; also recorded: competitive inhibition |
| O=C(O)c1cccc(/C=C/c2ccc(OCc3cc(-c4ccc(F)c(F)c4)on3)cc2)c1 [Compound 30, (E)-3-(4-((5-(3,4-Difluorophenyl)isoxazol-3-yl)methoxy)styryl)benzoic acid] |  | 4.9 | 6.02 ± 1.13 µM | 1.22 ± 0.48 µM |  |  |  |
| C[C@H](CCC(=O)O)[C@H]1CC[C@H]2[C@@H]3CC[C@@H]4C[C@H](O)CC[C@]4(C)[C@H]3CC[C@]12C [Lithocholic acid, lithocholic acid, reference compound] |  | 1.7 | 20.9 ± 3.66 µM | 12.5 ± 2.51 µM |  |  |  |
